Laboratory results: ChEMBL document CHEMBL1201862, “PubChem BioAssay data set” (2004)
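How tested: cells in 96-well plates exposed to compound for 48 hours at five concentrations. The concentration for 50% growth inhibition is given as GI50.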 The source made the active and inactive calls. No stated cut-off is given here; in the data, active = GI50 up to about 1.1 µM and inactive = higher.

What was measured:
Assay in all cases: NCI tumour cell line growth inhibition, 48 h
DU-145 = test system: DU-145
HL-60 = test system: HL-60
RXF 393 = test system: RXF 393
A498 = test system: A498
MDA-MB-435 = test system: MDA-MB-435
HCT-15 = test system: HCT-15
A549 = test system: A549
SW-620 = test system: SW-620
SF-295 = test system: SF-295
Malme-3M = test system: Malme-3M
NCI-H23 = test system: NCI-H23
SF-539 = test system: SF-539
SK-MEL-28 = test system: SK-MEL-28
OVCAR-5 = test system: OVCAR-5
SNB-75 = test system: SNB-75
CAKI-1 = test system: CAKI-1
MCF7 = test system: MCF7
HCT-116 = test system: HCT-116
SK-OV-3 = test system: SK-OV-3

Row | SMILES | GI50 (DU-145) | GI50 (HL-60) | GI50 (RXF 393) | GI50 (A498) | GI50 (MDA-MB-435) | GI50 (HCT-15) [µM] | GI50 (A549) | GI50 (SW-620) | GI50 (SF-295) | GI50 (Malme-3M) | GI50 (NCI-H23) | GI50 (SF-539) | GI50 (SK-MEL-28) | GI50 (OVCAR-5) | GI50 (SNB-75) | GI50 (CAKI-1) | GI50 (MCF7) | GI50 (HCT-116) | GI50 (SK-OV-3)
1 | Cc1c(-c2ccccc2)cc(O)c2nc3ccccc3n12 | > 100 µM (inactive) | 4.97 µM (inactive) | 83.6 µM (inactive) | > 100 µM (inactive) | 13.7 µM (inactive) | 6.32 | 14.5 µM (inactive) | 20.7 µM (inactive) | 49.8 µM (inactive) | > 100 µM (inactive) | > 100 µM (inactive) | > 100 µM (inactive) | > 100 µM (inactive) | > 100 µM (inactive) | 7.4 µM (inactive) | 74.1 µM (inactive) | 57.9 µM (inactive) | – | –
2 | CC[C@H]1CN(C)[C@H]2Cc3c([nH]c4ccccc34)C(=O)C[C@H]1C2C(=O)OC (stereo partly drawn) | > 100 µM (inactive) | 68.9 µM (inactive) | > 100 µM (inactive) | > 100 µM (inactive) | > 100 µM (inactive) | > 100 | > 100 µM (inactive) | > 100 µM (inactive) | > 100 µM (inactive) | > 100 µM (inactive) | > 100 µM (inactive) | > 100 µM (inactive) | > 100 µM (inactive) | > 100 µM (inactive) | – | – | > 100 µM (inactive) | > 100 µM (inactive) | > 100 µM (inactive)
3 | COC1=C(OC)C(=O)C(Cc2c(Cl)nc3n2CCS3)=C(C)C1=O | 17.2 µM (inactive) | 2.3 µM (inactive) | 17.4 µM (inactive) | 18.9 µM (inactive) | 13.9 µM (inactive) | 17.1 | 15.3 µM (inactive) | 18 µM (inactive) | 14.8 µM (inactive) | 7.83 µM (inactive) | 12.3 µM (inactive) | 14.6 µM (inactive) | 14.2 µM (inactive) | 17.6 µM (inactive) | – | 16.6 µM (inactive) | 12.9 µM (inactive) | 11.7 µM (inactive) | 12.6 µM (inactive)
4 | NP(=O)(Oc1c2occc2cc2ccc(=O)oc12)N(CCCl)CCCl (stereo not drawn) | > 100 µM (inactive) | 70.1 µM (inactive) | 0.0611 µM (active) | > 100 µM (inactive) | > 100 µM (inactive) | > 100 | 62.2 µM (inactive) | > 100 µM (inactive) | > 100 µM (inactive) | > 100 µM (inactive) | > 100 µM (inactive) | > 100 µM (inactive) | > 100 µM (inactive) | > 100 µM (inactive) | – | > 100 µM (inactive) | 51.1 µM (inactive) | > 100 µM (inactive) | –
5 | O=c1[nH]nc(-c2ccccc2)n1-c1ccncc1 | > 100 µM (inactive) | > 100 µM (inactive) | > 100 µM (inactive) | > 100 µM (inactive) | > 100 µM (inactive) | > 100 | > 100 µM (inactive) | > 100 µM (inactive) | > 100 µM (inactive) | > 100 µM (inactive) | > 100 µM (inactive) | > 100 µM (inactive) | > 100 µM (inactive) | > 100 µM (inactive) | > 100 µM (inactive) | > 100 µM (inactive) | > 100 µM (inactive) | > 100 µM (inactive) | –
6 | C=C(C)[C@@H]1CCC2=C[C@H](C/C(C)=C\C3=CC(C)=C(O3)[C@H]1O)OC2=O | > 100 µM (inactive) | > 100 µM (inactive) | 35.6 µM (inactive) | > 100 µM (inactive) | > 100 µM (inactive) | > 100 | 88.7 µM (inactive) | > 100 µM (inactive) | 80.9 µM (inactive) | > 100 µM (inactive) | – | 48.5 µM (inactive) | > 100 µM (inactive) | > 100 µM (inactive) | > 100 µM (inactive) | > 100 µM (inactive) | 71.1 µM (inactive) | – | –
